Reference: ChEMBL document CHEMBL1201862, “PubChem BioAssay data set” (2004)
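Dose response: 5 concentrations. Exposure: 48 h. Format: 96-well plates. Endpoint: linear interpolation; highest concentration if not reached. Abbreviation: GI50, concentration required for 50% inhibition of growth.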 Active and inactive are the calls of the source. No stated cut-off is given here; in the data, active = GI50 up to about 1.1 µM and inactive = higher.

Key:
Test in all cases: NCI anticancer screen, dose series, 48 h
OVCAR-3 = system: OVCAR-3
SK-MEL-5 = system: SK-MEL-5
LOX IMVI = system: LOX IMVI
HOP-92 = system: HOP-92
U-251 = system: U-251
SW-620 = system: SW-620
UO-31 = system: UO-31
NCI-H23 = system: NCI-H23
NCI-H522 = system: NCI-H522
ACHN = system: ACHN
Malme-3M = system: Malme-3M
786-0 = system: 786-0
IGROV-1 = system: IGROV-1
RXF 393 = system: RXF 393
HT-29 = system: HT-29
SNB-19 = system: SNB-19
SNB-75 = system: SNB-75
HCC 2998 = system: HCC 2998

## O=Cc1cn(CCCCCn2cc(C=O)c3ccccc32)c2ccccc12
OVCAR-3
  GI50: > 100 µM (inactive)
SK-MEL-5
  GI50: > 100 µM (inactive)
LOX IMVI
  GI50: 41.5 µM (inactive)
HOP-92
  GI50: > 100 µM (inactive)
U-251
  GI50: 67.9 µM (inactive)
SW-620
  GI50: > 100 µM (inactive)
UO-31
  GI50: > 100 µM (inactive)
NCI-H23
  GI50: > 100 µM (inactive)
NCI-H522
  GI50: 8.18 µM (inactive)
ACHN
  GI50: > 100 µM (inactive)
Malme-3M
  GI50: > 100 µM (inactive)
786-0
  GI50: 71.4 µM (inactive)
IGROV-1
  GI50: > 100 µM (inactive)
RXF 393
  GI50: 6.55 µM (inactive)
HT-29
  GI50: > 100 µM (inactive)
SNB-19
  GI50: > 100 µM (inactive)

## CC1(C)c2ccccc2N2C(c3ccccc3)=NOC21C (stereo unspecified)
OVCAR-3
  GI50: > 100 µM (inactive)
SK-MEL-5
  GI50: > 100 µM (inactive)
LOX IMVI
  GI50: > 100 µM (inactive)
SNB-75
  GI50: > 100 µM (inactive)
HOP-92
  GI50: > 100 µM (inactive)
U-251
  GI50: > 100 µM (inactive)
SW-620
  GI50: > 100 µM (inactive)
UO-31
  GI50: > 100 µM (inactive)
NCI-H23
  GI50: > 100 µM (inactive)
NCI-H522
  GI50: > 100 µM (inactive)
ACHN
  GI50: > 100 µM (inactive)
Malme-3M
  GI50: > 100 µM (inactive)
786-0
  GI50: > 100 µM (inactive)
IGROV-1
  GI50: > 100 µM (inactive)
RXF 393
  GI50: > 100 µM (inactive)
HT-29
  GI50: > 100 µM (inactive)
SNB-19
  GI50: > 100 µM (inactive)

## Cc1c2n(c(=O)[nH]c1=O)C1OC(CO)C(N=[N+]=[N-])C1O2 (stereo unspecified)
OVCAR-3
  GI50: > 100 µM (inactive)
SK-MEL-5
  GI50: > 100 µM (inactive)
LOX IMVI
  GI50: > 100 µM (inactive)
SNB-75
  GI50: > 100 µM (inactive)
HOP-92
  GI50: 49.5 µM (inactive)
U-251
  GI50: > 100 µM (inactive)
SW-620
  GI50: > 100 µM (inactive)
UO-31
  GI50: > 100 µM (inactive)
NCI-H23
  GI50: > 100 µM (inactive)
NCI-H522
  GI50: 90.6 µM (inactive)
ACHN
  GI50: > 100 µM (inactive)
786-0
  GI50: > 100 µM (inactive)
IGROV-1
  GI50: > 100 µM (inactive)
RXF 393
  GI50: 28 µM (inactive)
HT-29
  GI50: > 100 µM (inactive)
SNB-19
  GI50: > 100 µM (inactive)

## C[C@]12CC[C@H](O)CC1CCC[C@@H]2O (stereo partly specified)
OVCAR-3
  GI50: > 100 µM (inactive)
SK-MEL-5
  GI50: > 100 µM (inactive)
LOX IMVI
  GI50: > 100 µM (inactive)
SNB-75
  GI50: > 100 µM (inactive)
HOP-92
  GI50: > 100 µM (inactive)
U-251
  GI50: > 100 µM (inactive)
HCC 2998
  GI50: > 100 µM (inactive)
SW-620
  GI50: > 100 µM (inactive)
UO-31
  GI50: > 100 µM (inactive)
NCI-H23
  GI50: > 100 µM (inactive)
NCI-H522
  GI50: > 100 µM (inactive)
Malme-3M
  GI50: > 100 µM (inactive)
786-0
  GI50: > 100 µM (inactive)
IGROV-1
  GI50: > 100 µM (inactive)
RXF 393
  GI50: > 100 µM (inactive)
HT-29
  GI50: > 100 µM (inactive)
SNB-19
  GI50: > 100 µM (inactive)

## CCO/C=C1\N=C(c2ccc(Cl)c(Cl)c2)OC1=O
OVCAR-3
  GI50: > 100 µM (inactive)
SK-MEL-5
  GI50: > 100 µM (inactive)
LOX IMVI
  GI50: > 100 µM (inactive)
SNB-75
  GI50: 52.1 µM (inactive)
HOP-92
  GI50: > 100 µM (inactive)
HCC 2998
  GI50: > 100 µM (inactive)
SW-620
  GI50: > 100 µM (inactive)
UO-31
  GI50: 36.6 µM (inactive)
NCI-H23
  GI50: > 100 µM (inactive)
NCI-H522
  GI50: 89.5 µM (inactive)
ACHN
  GI50: > 100 µM (inactive)
Malme-3M
  GI50: > 100 µM (inactive)
786-0
  GI50: > 100 µM (inactive)
IGROV-1
  GI50: > 100 µM (inactive)
RXF 393
  GI50: 79.8 µM (inactive)
HT-29
  GI50: > 100 µM (inactive)
SNB-19
  GI50: > 100 µM (inactive)

## O=c1c2ccccc2c2nc3ccccc3nc2n1C1CCCCC1
OVCAR-3
  GI50: > 100 µM (inactive)
SK-MEL-5
  GI50: > 100 µM (inactive)
SNB-75
  GI50: 51.9 µM (inactive)
U-251
  GI50: > 100 µM (inactive)
HCC 2998
  GI50: > 100 µM (inactive)
SW-620
  GI50: > 100 µM (inactive)
UO-31
  GI50: > 100 µM (inactive)
NCI-H23
  GI50: > 100 µM (inactive)
NCI-H522
  GI50: > 100 µM (inactive)
ACHN
  GI50: > 100 µM (inactive)
Malme-3M
  GI50: > 100 µM (inactive)
786-0
  GI50: > 100 µM (inactive)
IGROV-1
  GI50: > 100 µM (inactive)
RXF 393
  GI50: > 100 µM (inactive)
HT-29
  GI50: > 100 µM (inactive)
SNB-19
  GI50: > 100 µM (inactive)

## CC(=O)O[C@H]1C(=O)[C@@]2(C)C([C@H](OC(=O)c3ccccc3)[C@]3(O)C[C@H](OC(=O)[C@H](O)[C@H](NC(=O)c4ccccc4)c4ccc(Cl)cc4)C(C)=C1C3(C)C)C1(OC(C)=O)CO[C@@H]1C[C@@H]2O (stereo partly specified)
OVCAR-3
  GI50: 0.00222 µM (active)
SK-MEL-5
  GI50: 0.000736 µM (active)
LOX IMVI
  GI50: < 0.0001 µM (active)
SNB-75
  GI50: < 0.0001 µM (active)
U-251
  GI50: 0.00182 µM (active)
HCC 2998
  GI50: 0.000813 µM (active)
SW-620
  GI50: 0.000497 µM (active)
UO-31
  GI50: 0.733 µM (active)
NCI-H23
  GI50: 0.00104 µM (active)
NCI-H522
  GI50: 0.000356 µM (active)
ACHN
  GI50: 0.261 µM (active)
Malme-3M
  GI50: 0.00239 µM (active)
786-0
  GI50: 0.00711 µM (active)
IGROV-1
  GI50: 0.000136 µM (active)
RXF 393
  GI50: 0.0149 µM (active)
HT-29
  GI50: 0.000106 µM (active)
SNB-19
  GI50: 0.0304 µM (active)

## c1ccc(C(c2ccccc2)c2ccccn2)cc1
OVCAR-3
  GI50: > 100 µM (inactive)
SK-MEL-5
  GI50: > 100 µM (inactive)
LOX IMVI
  GI50: > 100 µM (inactive)
SNB-75
  GI50: 52.5 µM (inactive)
U-251
  GI50: > 100 µM (inactive)
HCC 2998
  GI50: > 100 µM (inactive)
SW-620
  GI50: > 100 µM (inactive)
UO-31
  GI50: > 100 µM (inactive)
NCI-H23
  GI50: > 100 µM (inactive)
ACHN
  GI50: > 100 µM (inactive)
Malme-3M
  GI50: > 100 µM (inactive)
786-0
  GI50: > 100 µM (inactive)
IGROV-1
  GI50: > 100 µM (inactive)
HT-29
  GI50: > 100 µM (inactive)
SNB-19
  GI50: > 100 µM (inactive)
